Data on 2 compounds can be found in ChEMBL document CHEMBL3882727, “Imidazopyridine Kinase Inhibitors” (2008).

SMILES strings stand for the structures.

A short description of data set [1]: Toxicity in nude mouse allografted with mouse LISN cells assessed as body weight loss at 30 mg/kg, qd for 21 days measured during compound dosing. Format: organism-based. As to conditions: in vivo, 504 h.
Data set [2] can be described thus: Toxicity in nude mouse allografted with mouse LISN cells assessed as body weight loss at 15 mg/kg, bid for 21 days measured during compound dosing. Format: organism-based. The following applies: in vivo, 504 h.
Data set [3] is described as follows: Toxicity in nude mouse allografted with mouse LISN cells assessed as body weight loss at 30 mg/kg, qd for every 3 days per week for 3 weeks measured during compound dosing. The following applies: in vivo. Format: organism-based.
Data set [4] can be described thus: Toxicity in nude mouse xenografted with human COLO205 cells assessed as body weight loss at 100 mg/kg, qd for 21 days measured within 10 days of compound dosing relative to vehicle-treated control. The following applies: in vivo. It counts as organism-based, COLO 205.
The nature of data set [5]: Toxicity in nude mouse xenografted with human COLO205 cells assessed as body weight loss at 30 mg/kg, bid for 21 days measured within 10 days of compound dosing relative to vehicle-treated control. It counts as organism-based, COLO 205. The following applies: in vivo. On the technique in general: Xenograft models place foreign cells or tissue in a host animal.
Data set [6] can be described thus: Antitumor activity against human COLO205 cells xenografted in nude mouse assessed as tumor growth inhibition at 10 mg/kg, qd for 21 days relative to vehicle-treated control. Format: functional. As to conditions: COLO 205, 504 h, read-out: TGI.
The nature of data set [7]: Toxicity in nude mouse xenografted with human COLO205 cells assessed as body weight loss at 10 to 30 mg/kg, bid for 21 days measured during compound dosing. As to conditions: in vivo, 504 h. It counts as organism-based, COLO 205.
Data set [8] in a line: Toxicity in nude mouse xenografted with human BT474 cells assessed as body weight loss at 15 to 60 mg/kg, qd for 3 weeks without dosing on weekends measured during compound dosing. Format: organism-based, BT-474. As to conditions: in vivo, 504 h.
Data set [9] in a line: Toxicity in nude mouse xenografted with human BT474 cells assessed as body weight loss at 15 mg/kg, bid for 3 weeks without dosing on weekends measured during compound dosing. The following applies: in vivo, 504 h. Format: organism-based, BT-474.
Data set [10] in a line: Growth inhibition of human MDA-MB-453 cells assessed as combination index in presence of lapatinib after 3 days by methylene blue staining-based assay. Format: functional.
Data set [11] is described as follows: Growth inhibition of human MDA-MB-468 cells assessed as combination index in presence of lapatinib after 3 days by methylene blue staining-based assay. It counts as functional.
Data set [12] in a line: Growth inhibition of human MCF7 cells assessed as combination index in presence of lapatinib after 3 days by methylene blue staining-based assay. Format: functional.
Data set [13] is described as follows: Growth inhibition of human A549 cells assessed as combination index in presence of lapatinib after 3 days by methylene blue staining-based assay. Format: functional.
The nature of data set [14]: Toxicity in nude mouse allografted with mouse LISN cells assessed as body weight loss at 30 to 300 mg/kg, qd for 21 days measured during compound dosing. Format: organism-based. As to conditions: 504 h.

For the compound `COc1cc(N2CCC(N3CCN(CCF)CC3)CC2)ccc1Nc1nccc(-c2c(-c3cccc(C(=O)Nc4c(F)cccc4F)c3)nc3ccccn23)n1`, the Activity result was “Non-Toxic” in data set [1]; “Non-Toxic” in data set [2]; “Toxic” in data set [3]; above 20% in data set [4]; above 20% in data set [5]; “Non-Toxic” in data set [7]. The Activity entry in data set [8] and in data set [9] was “Non-Toxic” each time. The inhibition in vivo at 10 mg/kg in data set [6] turned out to be 42%. For the same compound, the CI was 0.31 in data set [10], 0.78 - 1.25 in data set [11], 1 in data set [12] and below 1 in data set [13].

On to `COc1cc(N2CCC(N3CCN(S(C)(=O)=O)CC3)CC2)ccc1Nc1nccc(-c2c(-c3cccc(C(=O)Nc4c(F)cccc4F)c3)nc3ccccn23)n1`, for which the Activity entry in data set [14] is “Non-Toxic”.
